Laboratory results taken from patent US9254248B2, “Inhibitor of odor caused by sotolone” (Kao Corporaton, priority 2013, dated 2016).

Tests used:
olfactory receptor OR8D1 [1] = target: T1, olfactory receptor OR8D1 (Homo sapiens, UniProt Q8WZ84); experiment: Antagonistic activity against the response of OR8D1 to sotolone (luciferase assay, rate of inhibition); format: cell-based; conditions: sotolone 100 μM and test substance 100 μM, OR8D1-expressing HEK293 cells
T1 construct: expressed in transfected cells; host or cells: HEK293
T1 sequence (Q8WZ84 1-308): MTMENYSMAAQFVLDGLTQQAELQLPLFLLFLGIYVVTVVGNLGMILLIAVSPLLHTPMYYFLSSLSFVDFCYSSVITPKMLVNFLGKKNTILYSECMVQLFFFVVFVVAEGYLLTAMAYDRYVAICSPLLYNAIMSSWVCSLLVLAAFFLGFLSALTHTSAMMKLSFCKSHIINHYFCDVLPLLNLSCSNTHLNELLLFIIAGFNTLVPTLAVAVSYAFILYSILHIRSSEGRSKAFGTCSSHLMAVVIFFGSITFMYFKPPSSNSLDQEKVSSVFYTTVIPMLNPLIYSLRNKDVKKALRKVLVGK
Method: 228 types of test substances were examined for their antagonistic activity against the response of the olfactory receptor OR8D1 to sotolone.
Sotolone (100 μM) and each test substance (100 μM) were added to HEK293 cells allowed to express the olfactory receptor OR8D1 by the same procedures as in Example 2. The response of the olfactory receptor was measured to evaluate change in receptor response caused by the addition of the test substance.
The rate of inhibition of the receptor response by the test substance was calculated as follows: firefly luciferase-derived luminescence intensity (Y) in the olfactory receptor OR8D1-expressing cells without sotolone stimulation was subtracted from firefly luciferase-derived luminescence intensity (X) induced by stimulation with sotolone alone to determine receptor activity (X−Y) based on the stimulation with sotolone alone. Likewise, the luminescence intensity (Y) in the cells without sotolone stimulation was subtracted from luminescence intensity (Z) induced by stimulation with the mixture of sotolone and the test substance to determine receptor activity (Z−Y) in the presence of the test substance. The rate of reduction in the receptor activity (Z−Y) in the presence of the test substance with respect to the receptor activity (X−Y) based on the stimulation with sotolone alone was calculated according to an expression shown below to determine the rate of inhibition of the receptor response by the test substance. In this assay, a plurality of independent duplicate experiments was performed. An average of the experiments in each run was obtained. Rate of inhibition (%)={1−(Z−Y)/(X−Y)}×100

olfactory receptor OR8D1 [2] = target: T1, olfactory receptor OR8D1; experiment: Luciferase reporter gene assay (cAMP) of olfactory receptor response to sotolone in HEK293 cells; format: cell-based
Text: (§1) On the basis of sequence information registered in GenBank, each human olfactory receptor gene was cloned by PCR with Human Genomic DNA Female (G1521: Promega Corp.) as a template. Each gene thus amplified by PCR was inserted into a pENTR vector (Invitrogen Corp.) according to the manual. A NotI-AscI site present on the pENTR vector r was recombined into a NotI-AscI site prepared downstream of Flag-Rho tag sequence on a pME18S vector.
(§2) A gene (GenBank GI: 50234917) encoding a human receptor transport protein, RTP1S was inserted into the EcoRI-XhoI site of the pME18S vector.
(§3) HEK293 cells expressing each of 400 types of human olfactory receptors were prepared. […]
(§4) The olfactory receptors expressed on the HEK293 cells are conjugated with intracellular Gas to activate adenylate cyclase, thereby increasing intracellular cAMP levels. In this study, their responses to sotolone were measured using luciferase reporter gene assay which involved monitoring increase in intracellular cAMP level as luminescence intensity derived from a firefly luciferase gene (fluc2P-CRE-hygro). […]
(§5) A medium was removed from the cultures prepared in the preceding paragraph 3). […] The luciferase activity was measured using Dual-Glo™ luciferase assay system (Promega Corp.) according to the instruction manual of the product. […]

[3] = test system: the other olfactory receptors (400 types of human olfactory receptors except OR8D1); experiment: Luciferase reporter gene assay of 400 types of human olfactory receptors, response to sotolone; format: cell-based; conditions: sotolone 1 mM, HEK293 cells expressing each receptor
Text: as §1, §2, §3, §4, §5

olfactory receptor OR8D1 [4] = target: T1, olfactory receptor OR8D1; conditions: Non-Patent Document 5; cited from earlier work

| SMILES | inhibition at 100 µM (olfactory receptor OR8D1 [1]) [%] | also measured |
| --- | --- | --- |
| CC(C)=CCCC(C)=CC=O [Citral, citral] | ≥ 50 | – |
| CC(=O)C1(C)CC2=C(CCCC2(C)C)CC1C (stereo not drawn) [Iso E Super, 7-acetyl-1,2,3,4,5,6,7,8-octahydro-1,1,6,7-tetramethyl-naphthalene] | ≥ 50 | – |
| CC1C/C=C/CCCCCCCCCC(=O)C1 [Muscenone(R) Delta, (5E)-3-methylcyclopentadec-5-en-1-one] | ≥ 50 | – |
| C[C@@H]1CCCCCCCCCCCCC(=O)C1 [Muscone, muscone] | – | rate of inhibition of the response of OR8D1 to sotolone (olfactory receptor OR8D1 [1]): 40% or more rate of |
| CC(=O)c1cc2c(cc1C)C(C)(C)C(C)CC2(C)C [Tonalid(R), 1-(5,6,7,8-tetrahydro-3,5,5,6,8,8-hexamethyl-2-naphthalenyl)-ethanone] | ≥ 50 | – |
| CC(=O)C1=C(C)C2CC3(C1)C(C)CCC3C2(C)C (stereo not drawn) [acetylcedrene, 1-(2,3,4,7,8,8a-hexahydro-3,6,8,8-tetramethyl-1H-3a,7-methanoazulen-5-yl)-ethanone] | ≥ 75 | – |
| CCCCCC(C=O)=Cc1ccccc1 [amylcinnamic aldehyde, 2-benzylideneheptanal] | ≥ 50 | – |
| CC(C)(C)c1ccc(CCC=O)cc1 [bourgeonal, 3-(4-tert-butylphenyl)propanal] | ≥ 50 | – |
| CC1=C(O)C(=O)OC1C (stereo not drawn) [sotolone, 3-Hydroxy-4,5-dimethyl-2(5H)-furanone] | – | concentration dependence of the response of OR8D1 to sotolone (olfactory receptor OR8D1 [2]; sotolone 0, 3, 10, 30, 100, 300, 1000 and 3000 μM, HEK293 cells with human RTP1S): concentration-dependent response; response of olfactory receptor OR8D1 to sotolone (olfactory receptor OR8D1 [2]; sotolone 1 mM, HEK293 cells expressing the receptor, 2.5 hours, fold increase of luminescence): exhibited a response; response of the other olfactory receptors to sotolone [3]: did not respond; response of olfactory receptor OR8D1 induced by sotolone (reported) (olfactory receptor OR8D1 [4]): induces the response |
